# Source: patent US20030188679A1, “Powdered mannitol and mannitol-containing compositions” (priority 2000, published 2003)
# Test: Particle size result of micronised salbutamol sulphate
# Format: physicochemical
substance,measurement,value
Salbutamol Sulphate,Particle size result: MMD (Mass Mean Diameter),=2.53 μm.
same,Particle size result: fraction of particles >1 μm,90.17%
same,Particle size result: size below which 90% of particles lie,<5.48 μm
